13 compounds from the OPERA property sets (Mansouri et al. 2018) can be followed below.

The structures appear in SMILES notation.

The term logP denotes a log measure of how a compound divides between an organic and an aqueous phase. Read a low logP as lower lipophilicity.

Compound `O=C(O)CCN1CCCCC1` had a logP of -2.45.
The value for `NC1(C(=O)O)CC1` was -2.78; that for `O=C(O)C1CCNCC1` was -3.05; that for `NC1(C(=O)O)CCCC1` was -2.28.
The figure for `O=C(O)C1CCCNC1` (stereo not drawn) is -2.89; for `NCCCCCCC(=O)O` it is -3.03.
The figure for `NCCCCCCCC(=O)O` is -2.55.
As to `CN(C)CC(=O)O`, the logP was -2.91.
As to `O=C(O)C1CCCCN1` (stereo not drawn), the logP is -2.31.
The compound `CCC(N)C(=O)O` (stereo not drawn) showed a logP of -2.54.
The figure for `O=C(O)C1CCN1` (stereo not drawn) is -2.84; for `NC1(C(=O)O)CCCCC1` it is -1.87.
In turn, `NCCC(=O)O` came in with a logP of -3.05.
